Laboratory results as given in paper PMC6215995 (International Journal for Parasitology: Drugs and Drug …, 2018).
Where two headings read alike, the source gives them in different places. Marks after values point to notes of the source that are not given here.

Legend:
[1] = system: BGM-VN; conditions: MTT, 24 h
Description: The compounds (20 μL), at various concentrations (400–1.0 μM), were placed in the 96-well plates, incubated with the cultured cells for 24 h under a 5% CO2 atmosphere at 37 °C and then the 3-(4,5-dimethylthiazol-2-yl)-2,5-diphenyltetrazolium bromide (MTT) solution (5 mg/mL; 20 μL/well for 3 h) was used to evaluate the mitochondrial viability. The supernatants were carefully removed and 100 μL DMSO were added to each well and mixed to solubilize the formazan crystals. The optical density was determined at 570 and 630 nm (background) (SpectraMax340PC384). The cell viability was expressed as the percentage of the control absorbance in the untreated cells after subtracting the appropriate background. Each test was performed in triplicate in at least two different experiments.

[2] = system: P. falciparum 3D7; test: Antiplasmodial SYBR green assay, CQ-sensitive strain; assay type: cell-based; conditions: for Selective index 3D7: ratio between MDL50 and IC50, 3D7
Description: Briefly, the plates were centrifuged at 700g for 5 min at room temperature to remove the medium, washed with PBS and incubated for 30 min with lysis buffer solution [2.4228 g TRIS, ultra-pure for 20 mM solution, pH 7.5; 1.8612 g of EDTA 5 mM ultrapure for 5 mM solution; 80 μg Saponin (0.008% w/v); 800 μL of Triton X-100 (0.08% v/v); water Type I] and SYBR green I DNA stain (1:20000). The fluorescence of uninfected erythrocytes was considered as background.
(§1) The half-maximal drug inhibitory concentration (IC50) was estimated by curve fitting using the software from the OriginLab Corporation (USA) and compared to the parasite growth in the drug-free medium.

[3] = system: β-hematin formation; test: Inhibition of β-hematin formation assay; assay type: biochemical; conditions: MOG lipid catalyst, sodium acetate pH 4.8, 37 °C, 2 h; read-out: β-hematin inhibition IC50 (mM)± SD
Description: The assay was performed using a lipid as a catalyst to promote crystallization ([Pisciotta et al., 2007]; [Fitch et al., 1999]). Briefly, drug stock solutions were prepared in DMSO and were used at a final concentration of up to 30 mM. […] After incubation for 30 min at room temperature, the amount of solubilized monomeric heme was determined by measuring the absorbance at 405 nm. […] The absorbance was read at 405 nm to determine the total amount of heme present in each well. The inhibition of heme crystallization was determined as a function of the amount of monomeric heme that was not crystallized divided by the total amount of heme present in the assay mixture. The results are expressed as IC50 values based on the percentage inhibition of β-hematin formation by the compounds […] and DAQ.

[4] = system: P. falciparum K1; test: Antiplasmodial SYBR green assay, multidrug-resistant strain; assay type: cell-based; conditions: for Selective index K1: ratio between MDL50 and IC50, K1
Description: The freshly sorbitol synchronized ring stages were immediately incubated with the test compounds at various concentrations (from 10 to 0.152 μM or 1.0–0.0152 μM) that were previously solubilized in 0.05% dimethyl sulfoxide (DMSO) (v/v) ([Lambros and Vanderberg, 1979]). […] The antiplasmodial activity of the compounds was measured through SYBR green assay ([Smilkstein et al., 2004]). Briefly, the plates were centrifuged at 700g for 5 min at room temperature to remove the medium, washed with PBS and incubated for 30 min with lysis buffer solution [2.4228 g TRIS, ultra-pure for 20 mM solution, pH 7.5; 1.8612 g of EDTA 5 mM ultrapure for 5 mM solution; 80 μg Saponin (0.008% w/v); 800 μL of Triton X-100 (0.08% v/v); water Type I] and SYBR green I DNA stain (1:20000). The fluorescence of uninfected erythrocytes was considered as background. Fluorescence was measured on fluorimeter (SpectraMax340PC384) at 485/535 nm.
as §1

[5] = system: P. berghei NK65; test: Suppressive test in P. berghei infected mice; assay type: in vivo; conditions: for Reduction of parasitemia until day 11 after infection / Mice survival in comparison with the non-treated control / Parasitemia on day 5 / Parasitemia %reduction on day 5 / Parasitemia on day 7 / Parasitemia %reduction on day 7 / Parasitemia on day 9 / Parasitemia %reduction on day 9 / Parasitemia on day 11 / Parasitemia %reduction on day 11 / Parasitemia on day 13 / Parasitemia %reduction on day 13 / Parasitemia on day 15 / Parasitemia %reduction on day 15 / Survival: three consecutive days; for Mice survival in comparison with the non-treated control: Mann-Whitney test p < 0.05; for Parasitemia %reduction on day 5: day 5, vs non treated; for Parasitemia %reduction on day 7: day 7, vs non treated; for Parasitemia %reduction on day 9: day 9, vs non treated; for Parasitemia %reduction on day 11: day 11, vs non treated; for Parasitemia %reduction on day 13: day 13, vs non treated; for Parasitemia %reduction on day 15: day 15, vs non treated
Description: The P. berghei NK65 strain was obtained as a donation from New York University and maintained through weekly blood passages. For the experiments, groups of up to 30 mice were inoculated i.p. with 1 × 10^5 infected erythrocytes, kept together for about 24 h, then randomly distributed into groups of five per cage. […] On days 5–15 after the parasite inoculation, blood was taken from the tail of each mouse and used to prepare thin smears that were methanol-fixed, Giemsa-stained, and examined microscopically (1000×) to determine parasitemia. […] The experiments were performed twice.

[6] = Plasmodium falciparum, 3D7 CQ-sensitive strain, read-out: IC50 (nM ± SD) P. falciparum 3D7
[7] = Plasmodium falciparum, K1 multidrug-resistant strain, read-out: IC50 (nM ± SD) P. falciparum K1
[8] = 3D7 CQ-sensitive strain, read-out: IC50 (nM ± SD) P. falciparum 3D7
[9] = K1 multidrug-resistant strain, read-out: IC50 (nM ± SD) P. falciparum K1
[10] = oral 50 mg/kg, followed until day 30
[11] = 20 mg/kg, followed until day 30

Row | Compound | MLD50 BGM-VN [1] | IC50 [2, 6] | Selective index 3D7 [2] | IC50 [3] | IC50 [4, 7] | Selective index K1 [4] | IC50 [2, 8] | Mice survival in comparison with the non-treated control ([5]; oral 50 mg/kg) | Parasitemia on day 5 ([5]; oral 50 mg/kg) | Parasitemia on day 7 ([5]; oral 50 mg/kg) | Parasitemia %reduction on day 7 ([5]; oral 50 mg/kg) | Parasitemia on day 9 ([5]; oral 50 mg/kg) | Parasitemia %reduction on day 9 ([5]; oral 50 mg/kg) | Parasitemia on day 11 ([5]; oral 50 mg/kg) | Parasitemia %reduction on day 11 ([5]; oral 50 mg/kg) | Parasitemia on day 13 ([5]; oral 50 mg/kg) | Parasitemia %reduction on day 13 ([5]; oral 50 mg/kg) | Parasitemia on day 15 ([5]; oral 50 mg/kg) | Parasitemia %reduction on day 15 ([5]; oral 50 mg/kg) | Survival [5, 10] | also measured
1 | O=C(O)CNc1ccnc2cc(Cl)ccc12 [GIQ, Acid 2-(7-chloroquinolin-4-ylamino) acetic] | >1000 µM | > 10000 nM | Inactive | 7.6 ± 0.2 mM | > 10000 nM | Inactive | – | – | – | – | – | – | – | – | – | – | – | – | – | – | Activity against P. falciparum in words ([2]; sensitive and resistant parasites, highest dose 10 μM): inactive in all doses tested
2 | N-(4-(dimethylamino)but-2-enyl)-7-chloro-quinolin-4-amine [DAQ] | 1481 ± 39 µM | – | – | 0.15 ± 0.03 mM | – | – | 46 ± 4 nM | significantly higher | 0.00 | 0.00 | 100% | 0.00 | 100% | 0.00 | 100% | 0.77 | 92% | 3.67 | 82% | 28 ± 1 ^b | IC50 [4, 9]: 50 ± 3 nM; Reduction of parasitemia until day 11 after infection ([5]; oral 50 mg/kg): 100%; Parasitemia %reduction on day 5 ([5]; oral 50 mg/kg): 100%
3 | NCCNc1ccnc2cc(Cl)ccc12 [CEQ, N-(2-aminoethyl)-7-chloroquinolin-4-amine] | 179 ± 40 µM | 273 ± 12 nM | 655 | 1.2 ± 0.76 mM | 218 ± 44 nM | 821 | – | significantly higher | 0.00 | 0.00 | 100% | 0.00 | 100% | 0.00 | 100% | 0.57 | 94% | 4 | 80% | 26 ± 6 ^b | Reduction of parasitemia until day 11 after infection ([5]; oral 50 mg/kg): 100%; Parasitemia %reduction on day 5 ([5]; oral 50 mg/kg): 100%
4 | CCN(CC)CCCC(C)Nc1ccnc2cc(Cl)ccc12 (centres unmarked) [CQ, Chloroquine, reference compound] | – | – | – | 0.76 ± 0.46 mM | – | – | – | – | – | – | – | – | – | – | – | – | – | – | – | – | IC50 ([2]; Plasmodium falciparum, 3D7, read-out: IC50 (nM ± SD) P. falciparum 3D7): 36 ± 12 nM; IC50 ([4]; Plasmodium falciparum, K1, read-out: IC50 (nM ± SD) P. falciparum K1): 177 ± 20 nM; Survival in words [5, 11]: survived until the last day of the experiment; Parasitemia on day 5 ([5]; 20 mg/kg): 0.00; Parasitemia %reduction on day 5 ([5]; 20 mg/kg): 100%; Parasitemia on day 7 ([5]; 20 mg/kg): 0.00; Parasitemia %reduction on day 7 ([5]; 20 mg/kg): 100%; Parasitemia on day 9 ([5]; 20 mg/kg): 0.00; Parasitemia %reduction on day 9 ([5]; 20 mg/kg): 100%; Parasitemia on day 11 ([5]; 20 mg/kg): 0.00; Parasitemia %reduction on day 11 ([5]; 20 mg/kg): 100%; Parasitemia on day 13 ([5]; 20 mg/kg): 0.00; Parasitemia %reduction on day 13 ([5]; 20 mg/kg): 100%; Parasitemia on day 15 ([5]; 20 mg/kg): 0.00; Parasitemia %reduction on day 15 ([5]; 20 mg/kg): 100%; Survival [5, 11]: >30 ^b; Parasitemia in words ([5]; 20 mg/kg, until the last day of evaluation (day 15)): no parasitemia
5 | N-(prop-2-enyl)-7-chloroquinoline-4-amine [PCQ] | 407 ± 185 µM | – | – | 3 ± 3 mM | – | – | 377 ± 14 nM | not increased | 1.04 | 4.83 | 10% | 5.75 | 8% | 7.5 | 32% | 7.0 | 32% | 34.5 | 0% | 17 ± 8 | IC50 [4, 9]: 405 ± 32 nM; Parasitemia %reduction on day 5 ([5]; oral 50 mg/kg, 50 mg/kg): 73%
